# From US20180148648A1, “REACTIVE MESOGENS” (Merck Patent GmbH, priority 2015, published 2018)
# Assay: Yellowing study by UV-Vis percentage transmission after UV exposure
# Type: physicochemical
# Conditions: 1 wt. % in dichloromethane; percentage transmission across visible range; cured at 0, 100, 500, 1000 and 3000 mJ; FIG. 2
# Source text: UV-Vis spectroscopy was used to measure the compound yellowing by measuring the percentage transmission for each of the compounds across the visible range. This was done by dissolving 1 wt. % of each compound in a solvent, usually dichloromethane, and measuring the solutions percentage transmission on the Hitachi UV-Vis spectrometer, with air as a baseline. The solutions were then cured at a variety of different doses (0, 100, 500, 1000 and 3000 mJ) and the transmission measured again.
# Anhydrous dichloromethane was used to dissolve the mixtures, as it remains unaffected when exposed to UV light. By comparing these percentage transmissions it could be concluded, which compound yellow and to what extent.
row,change in yellowing when exposed to UV-light,SMILES
1,significant increase in yellowing,C=CC(=O)OCCCCCCOc1ccc(C(=O)Oc2ccc(C#Cc3ccc(OC)cc3)cc2C)cc1 [B]
2,least amount of change in yellowing,C=CC(=O)OCCCCCCOc1ccc(C(=O)Oc2ccc(C#Cc3ccc(OC)cc3)cc2F)cc1 [RM-1]
3,least amount of change in yellowing,C=CC(=O)OCCCCCCOc1ccc(C(=O)Oc2ccc(C#Cc3ccc(OC)cc3)cc2Cl)cc1 [A]
